# Test results from US20160136071A1, “Topical bimatoprost for promoting hair growth containing formulations” (priority 2013, published 2016).
# How the values were obtained:
# [1] = tested on: lashes and hair around the eyes; test: Study of lashes and hair around the eyes of glaucoma patients administering bimatoprost in only one eye (slit lamp biomicroscope); format: in vivo, human; settings: one drop daily of 0.03% ophthalmic solution to one eye
# Procedure: A study is initiated to systematically evaluate the appearance of lashes and hair around the eyes of patients who are administering bimatoprost in only one eye. The study involves 10 subjects, 5 male, 5 female, average age 70 years, (ranging from 50-94 years). All patients have glaucoma. Each subject is treated daily by the topical application of one drop of bimatoprost at a dosage of 1.5 µg/ml/eye/day (0.03%, by weight, ophthalmic solution, sold under the names Lumigan® and Latisse® by Allergan, Irvine, Calif., U.S.A.) to the region of one eye by instilling the drop onto the surface of the eye. The region of the fellow control eye is not treated with bimatoprost and served as a control.
# In the course of treatment with eye drops, there is typically spontaneous tearing, and excess fluid from the drops and associated tears gathers at the lid margins. In the course of wiping the drug containing fluid from the lid margins and adjacent lid, a thin film of the fluid is routinely spread to contact the adjacent skin of the lid area.
# The study is limited to subjects who have administered bimatoprost to one eye for more than 3 months. The mean duration of exposure to bimatoprost prior to assessing the parameter of lash growth between the control and study eye is 129 days (range 90-254 days). Observations are made under high magnification at the slit lamp biomicroscope. Documentation of differences between the control and treatment areas is accomplished using a camera specially adapted for use with the slit lamp biomicroscope. The results of the observations are as follows: Length of lashes: Increased length of eyelashes is regularly observed on the side treated with bimatoprost. The difference in length varies from approximately 10% to as much as 30%. […] In areas where there are a large number of lashes in the control eye, the increased number of lashes in the bimatoprost-treated eye gave the lashes on the treated side a more thickly matted overall appearance. […] These long, thick lash-like hairs were present in the central portion of the lids of several patients in a linear arrangement just above the lash line. Hairs are present at similar locations in the control eyes but are by contrast thinner or more fine in appearance, have less luster and pigment and are more flat against the skin of the lid typical of vellus or intermediate hairs. In several patients, lash-like terminal hairs grow luxuriantly in the medial canthal area in the treated eye. In the corresponding control eye, vellus hairs are seen at the same location. Lash-like hairs are also present in the lateral canthal area of the treated eye but not the control eye in several subjects. […]
# [2] = tested on: lashes and adjacent hairs; test: Daily-practice observation of lashes in glaucoma patients treated with bimatoprost in one eye; format: in vivo, human
# Source text: In the course of treating patients having glaucoma, treatment may only be appropriate in one eye. […] The lash appearance on the lids of the treated eye would have appeared quite attractive if it represented a bilateral phenomenon. Because of its asymmetric nature, the long lashes on one side could be construed as disturbing from a cosmetic standpoint. Because of the very unusual appearance a systematic examination of other patients who were taking bimatoprost in only one eye was made. It soon became apparent that this altered appearance was not an isolated finding. […] Definite differences could be identified to varying degrees in the lashes and adjacent hairs of all patients who were taking the drug on a unilateral basis for longer than 6 months. These findings were totally unexpected and surprising.
# The changes in the lashes after topical application of bimatoprost were apparent on gross inspection in several patients once attention was focused on the issue. In those with light colored hair and lashes, the differences were only seen easily with the aid of the high magnification and lighting capabilities of the slit lamp biomicroscope. In the course of a glaucoma follow up examination, attention is generally immediately focused on the eye itself. […]
# [3] = powder, cited from earlier work
compound,measurement,setting,value
"CCNC(=O)CCC/C=C\C[C@@H]1[C@@H](/C=C/[C@@H](O)CCc2ccccc2)[C@H](O)C[C@@H]1O [Bimatoprost, (Z)-7-[(1R,2R,3R,5S)-3,5Dihydroxy-2-[(1E,3S)-3-hydroxy-5-phenyl-1-pentenyl]cyclopentyl]-5-N-ethylheptenamide]","Growth of vellus hair on lids, treated vs control eye",[1]; areas below and lateral to the lower lid,"increased in number, appear more robust and are much longer and thicker"
same,"Perpendicular angulation of hairs, treated vs control eye",[1]; lash-like hairs above lash line and in canthal areas,leave the surface of the skin at a more acute angle
same,"Number of lashes, treated vs control eye","[1]; mean exposure 129 days, fellow eye untreated",Increased numbers of lashes
same,"Auxiliary lash-like hair growth, treated vs control eye",[1]; several patients,apparent increase in lash-like hair in transitional areas
same,Lash appearance in treated eye vs non-treated eye,[2]; glaucoma patient treated in one eye,"longer, thicker and fuller in the treated eye than in the non-treated eye"
same,Hypertrichosis in the region of treatment,[2]; patients treated in or around the eye,regularly develop hypertrichosis
same,solubility in ethyl alcohol,[3]; ethyl alcohol,very soluble
same,solubility in methyl alcohol,[3]; methyl alcohol,very soluble
same,solubility in water,[3]; water,slightly soluble
